The record followed here is the METLIN SMRT retention time set (Domingo-Almenara et al. 2019).

This data set in a line: gradient 5% acetonitrile 3 min, to 50% in 2 min, to 85% in 15 min, held 3 min, 100 µL/min. The settings on record: column: Zorbax Extend-C18 2.1 x 50 mm; eluents: water / acetonitrile, 0.1% formic acid. In short, it runs like this:
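Over 3 months, pure standards in mixtures of ~100 molecules were run by HPLC coupled to a quadrupole time-of-flight mass spectrometer in positive and negative ionization mode. The column was a Zorbax Extend-C18 (2.1 × 50 mm, 1.8 μm) at 100 μL/min, eluted with water and acetonitrile each holding 0.1% formic acid, with 40 μL dead and 900 μL dwell volumes. Retention time was determined from adduct peaks chosen by software and checked manually.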
`Cc1ccc2c(=O)c(C(=O)Nc3cccc(F)c3)c[nH]c2n1` displayed an RP-LC retention time of 770 s.

As to `Cc1cccc(-c2nnc(C)c(N3CCOCC3)n2)c1`, the RP-LC retention time turned out to be 645 s.

Regarding `COc1cccc(NC(=O)Nc2cccc(-c3ccc(N4CCOCC4)nn3)c2)c1`, the RP-LC retention time amounted to 672 s.

`CCOC(=O)c1cnc(N2CCN(c3ccc(Cl)cc3)CC2)nc1C` yielded an RP-LC retention time of 1380 s.

As to `O=S(=O)(Nc1cccc(Cl)c1)c1c[nH]c2ncccc12`, the RP-LC retention time came out at 765 s.

`Cc1c(C(=O)NCc2ccco2)nnn1-c1ccc(Br)cc1` registered an RP-LC retention time of 844 s.

`O=C(CSc1nccc2ccccc12)Nc1ccccc1C(F)(F)F` came in with an RP-LC retention time of 1080 s.

`Cn1c(CNC(=O)C2CCC2)nc2c1CN(S(=O)(=O)Cc1ccc(Cl)cc1)CC2` registered an RP-LC retention time of 586 s.

For `CCn1c(=O)c(C)nc2cc(-c3noc(-c4cccc(N(C)C)c4)n3)ccc21`, the RP-LC retention time came to 1170 s.

Consider `O=C(NCC(c1ccc2c(c1)OCO2)N1CCN(c2ccccc2F)CC1)c1cnccn1` (stereo unspecified), for which the RP-LC retention time came to 593 s.

Turning to `Cc1nnc2ccc(N3CCC(C(=O)N4CCN(c5cccc(Cl)c5)CC4)CC3)nn12`, the RP-LC retention time turned out to be 860 s.

In the case of `COc1ccc(C2Cn3nc(-c4nc(C(C)(C)C)no4)cc3CO2)cc1` (stereo unspecified), the RP-LC retention time is 611 s.

For the compound `Cc1csc(NC(=O)c2ccc(C(=O)Nc3nc(C)cs3)cc2)n1`, the RP-LC retention time was determined as 845 s.

The compound `O=C(Nc1ccccc1)N1CCC(N2CCN(Cc3cccc(F)c3)C(=O)C2=O)CC1` came in with an RP-LC retention time of 691 s.

As for `COc1ccc(OCc2ccc(-c3nc(C#N)c(NCCN(C)C)o3)o2)cc1`, the RP-LC retention time was found to be 676 s.

`O=C(NC1CCCCCC1)C1CCCN(C(=O)c2cc(-c3ccncc3)n[nH]2)C1` (stereo unspecified) gave an RP-LC retention time of 627 s.

`O=C(c1ccc[nH]1)N1CCC2(CC1)NC(=O)N(Cc1ccc(Cl)cc1)C2=O` registered an RP-LC retention time of 761 s.

For the compound `Cc1ccc(C(=O)NC2CCN(c3nnc4ccc(C(F)(F)F)cn34)CC2)cc1`, the RP-LC retention time came to 802 s.

In turn, `CCCN(C(=O)Cc1ccc(OC)c(OC)c1)c1nc(-c2ccc(C)cc2)cs1` showed an RP-LC retention time of 1310 s.

Turning to `COc1cc(F)ccc1-c1ccnc2nc(Cc3ccc(F)cc3)nn12`, the RP-LC retention time worked out at 905 s.

As for `CC1CCN(C(=O)C2CCCN(c3ncnc4c3nc3n4CCCCC3)C2)CC1` (stereo unspecified), the RP-LC retention time turned out to be 793 s.

With `O=C(c1cccc(Br)c1)N1CCc2nc[nH]c2C1`, the RP-LC retention time was determined as 595 s.

`COCCN1C(=O)Cc2ccccc2C1C(=O)NCc1cccs1` (stereo unspecified) gave an RP-LC retention time of 715 s.

As to `O=C(Cc1ccccc1)NCc1nc(-c2ccc(-c3csc(C4CC4)n3)cc2)no1`, the RP-LC retention time was found to be 1040 s.

Take `CCN(CC)C(=O)C1CCCN(c2ncnc3c2nc2n3CCCCC2)C1` (stereo unspecified): the RP-LC retention time was 708 s.

As to `COC(=O)c1ccc2c(=O)n(Cc3ccccc3)c(N3CCOCC3)nc2c1`, the RP-LC retention time worked out at 953 s.

Consider `Cc1cc2nn(CC(=O)Nc3ccc(F)cc3Cl)c(=O)n2c(-c2ccccc2)n1`, for which the RP-LC retention time was found to be 761 s.

`CCN(CC)CCNc1ncnc2c1cnn2-c1ccc(C)cc1`: the RP-LC retention time was 642 s.

Take `COC(=O)c1c(C)c(C(=O)C(C)N(CC(C)C)C(=O)c2ccc(F)cc2)c(C)n1C` (stereo unspecified): the RP-LC retention time came to 1020 s.

In the case of `O=C(NCCn1nc(-n2ccnc2)ccc1=O)c1cccc(-n2cnnn2)c1`, the RP-LC retention time worked out at 521 s.

With `O=C(C1CCCO1)N1CCC(CCOc2cccc(F)c2)CC1` (stereo unspecified), the RP-LC retention time was found to be 842 s.

`CCCNc1cc(N2CCCC(CCC(=O)N3CCC(COC)CC3)C2)ncn1` (stereo unspecified) yielded an RP-LC retention time of 649 s.

In the case of `O=C(C1CCN(c2cnc3nccnc3c2)CC1)N1CCCCC1`, the RP-LC retention time turned out to be 648 s.

For the compound `CC1CCN(S(=O)(=O)c2cccn(CC(=O)OC(C)(C)C)c2=O)CC1`, the RP-LC retention time turned out to be 965 s.

The compound `CCCCn1cnc2c(-c3ccccc3)cn(CC(=O)NCc3ccco3)c2c1=O` gave an RP-LC retention time of 922 s.

Turning to `Cc1ccc(-c2cc(C(=O)NCc3ccc4c(c3)OCO4)ccn2)s1`, the RP-LC retention time is 902 s.

In turn, `CCCCNC(=O)C(=O)NCc1n[nH]c(=O)c2ccccc12` yielded an RP-LC retention time of 659 s.

`COC(=O)c1cn(CC(=O)Nc2ccc(Br)cc2F)c2nc(C)ccc2c1=O`: the RP-LC retention time came out at 775 s.

As to `CCOC(=O)c1c(S(=O)(=O)N2CCC(C(=O)NCc3ccc(C)cc3)CC2)c(C)n(C)c1C`, the RP-LC retention time was determined as 841 s.

In turn, `CC1=C(c2ccccc2)S(=O)(=O)N=C1N1CCCN(C(=O)c2ccccc2F)CC1` yielded an RP-LC retention time of 802 s.

As to `CCCn1cc(CCNS(=O)(=O)c2ccc(OC)c(Cl)c2)c2cccnc21`, the RP-LC retention time was determined as 865 s.

Take `CSc1cccc(NC(=O)N2CCC(c3cc(=O)n4nccc4n3C)CC2)c1`: the RP-LC retention time came out at 679 s.

For `Cc1ccccc1NC(=O)N1CCC2(CC1)NC(=O)c1cc(F)ccc1N2C`, the RP-LC retention time came out at 1070 s.

Take `Cc1cccc(-c2ncccc2CNS(=O)(=O)c2ccccc2Br)c1`: the RP-LC retention time came out at 731 s.

Turning to `COc1cccc(NC(=O)Cn2c(C)cc(-c3nnc(-c4ccc(F)cc4)o3)c2C)c1`, the RP-LC retention time was found to be 943 s.

Regarding `CCN(CC)S(=O)(=O)c1cccc(-c2nnc(-c3ccccc3OC)o2)c1`, the RP-LC retention time was 950 s.

For `O=C(NCc1cccnc1)C1CCN(c2cc(N3CCSCC3)ncn2)CC1`, the RP-LC retention time amounted to 553 s.

`CC1=C(C(=O)O)N2C(=O)C(NC(=O)[C@H](N)c3ccccc3)[C@H]2SC1` (stereo partly specified) yielded an RP-LC retention time of 627 s.

Compound `CC1(CNC(=O)c2ccccc2Br)CCOCC1` came in with an RP-LC retention time of 698 s.

Turning to `CNS(=O)(=O)c1ccc(Cl)c(-c2nnc(-c3ccccc3)o2)c1`, the RP-LC retention time came to 870 s.

Consider `O=C(NCCc1c[nH]c2ccc(Cl)cc12)C1CCCN(c2nc3cccnc3s2)C1` (stereo unspecified), for which the RP-LC retention time turned out to be 858 s.

In the case of `COc1ccccc1OCCN1C(=O)C2(CCOCC2)CC1c1nnnn1C(C)(C)C` (stereo unspecified), the RP-LC retention time turned out to be 796 s.

`CCOC(=O)C1CCN(c2ncc(S(=O)(=O)c3ccccc3)c(N)n2)CC1`: the RP-LC retention time stood at 885 s.

`CN(C)CCn1ccc2ccn(CC(=O)NCc3ccccc3)c(=O)c21` had an RP-LC retention time of 606 s.

On to `Cc1ccc(OCC(O)Cn2c(C3CC3)nc3ccccc32)cc1` (stereo unspecified), for which the RP-LC retention time came to 697 s.

As for `O=C(Cn1nc2c(N3CCCCCC3)nccn2c1=O)Nc1ccc(F)c(Cl)c1`, the RP-LC retention time amounted to 786 s.

`Cc1sc(NC(=O)CC(C)C)nc1-c1ccc2c(c1)NC(=O)CO2` showed an RP-LC retention time of 822 s.

On to `O=C(Cn1nc2ccc(C(=O)NCc3ccccc3)cn2c1=O)NC1CCc2ccccc21` (stereo unspecified), for which the RP-LC retention time turned out to be 766 s.

`N#Cc1ccc(S(=O)(=O)N2CCC(Cc3nc(-c4cccnc4)n[nH]3)C2)cc1` (stereo unspecified): the RP-LC retention time turned out to be 634 s.

On to `O=C(CC1CCCC1)NCCC1CCN(C(=O)Nc2cc(F)cc(F)c2)CC1`, for which the RP-LC retention time was found to be 905 s.

Regarding `Cn1cnc(S(=O)(=O)N2CC(Oc3ccccc3-c3nc(-c4ccccc4)no3)C2)c1`, the RP-LC retention time turned out to be 915 s.

The compound `Cc1ccc(-c2csc(NC(=O)CN3C(=O)c4ccccc4C3=O)n2)o1` showed an RP-LC retention time of 852 s.

As for `O=C(Cc1nnc(-c2ccc3ncccc3c2)o1)Nc1ccc(F)cc1`, the RP-LC retention time is 697 s.

With `COc1cccc(CNC(=O)C2(C)CCCN(C(=O)Nc3cc(OC)cc(OC)c3)C2)c1` (stereo unspecified), the RP-LC retention time is 844 s.

`CCC(C)C(NC(=O)c1ccc(C)cc1)C(=O)Nc1nc2ccccc2[nH]1` (stereo unspecified) had an RP-LC retention time of 765 s.

`O=C(NCCC1=CCCCC1)c1cccn1-c1cccnc1` gave an RP-LC retention time of 810 s.

`CC(C)(C)c1ccc(NC(=O)N2CCN(CCNC(=O)c3cccs3)CC2)cc1`: the RP-LC retention time was 616 s.

`CC(C)(C)c1cc(C(=O)NCc2cccs2)nc2ccnn12` came in with an RP-LC retention time of 1110 s.

In the case of `O=C(NCc1ccccn1)c1ccc(=O)n(Cc2ccccc2)n1`, the RP-LC retention time came to 573 s.

For `NS(=O)(=O)c1ccc(CCNC(=O)Cc2cc(-c3cc4ccccc4o3)on2)cc1`, the RP-LC retention time was determined as 736 s.

For `CCOc1cc(=O)n2c(c1C(=O)Nc1cc(C)cc(C)c1)CCCC2`, the RP-LC retention time is 791 s.

`CCCC(NC(=O)Cc1ccc(Cl)cc1)C(=O)Nc1nc2ccccc2[nH]1` (stereo unspecified) had an RP-LC retention time of 753 s.

Regarding `O=C(NCCn1nc(-c2ccco2)ccc1=O)c1ccc2ncsc2c1`, the RP-LC retention time was 610 s.

The compound `O=c1ccc(-c2ccccc2)nn1CCc1nc(-c2ccc(Cl)cc2)no1` registered an RP-LC retention time of 1040 s.

In turn, `COc1ccc(OC)c(S(=O)(=O)N2C[C@@H](F)C[C@H]2C(=O)N2CCOCC2)c1` registered an RP-LC retention time of 906 s.

Regarding `COC(=O)c1c(C)c(C(=O)C(C)N(CCC(C)C)C(=O)c2ccccc2Cl)c(C)n1C` (stereo unspecified), the RP-LC retention time worked out at 1130 s.

`COC(=O)c1c(C)c(C(=O)C(C)N(Cc2ccc(F)cc2)C(=O)C(C)C)c(C)n1C` (stereo unspecified) returned an RP-LC retention time of 990 s.

Consider `CCc1nc(-n2cccc2)sc1C(=O)Nc1ccc(F)c(C)c1`, for which the RP-LC retention time was 1170 s.

For `CNC(=O)c1noc([C@@H]2CC(F)(F)CN2C(=O)C2CCC2)n1`, the RP-LC retention time amounted to 669 s.

Regarding `CCCN1CCN(C2CCN(C(=O)C(CC)CC)CC2)C1=O`, the RP-LC retention time amounted to 727 s.

`COc1ccc(-c2csc(NC(=O)NC3CCCC3)n2)cc1`: the RP-LC retention time was 861 s.
